This note sets out measurements from ChEMBL document CHEMBL1201862, “PubChem BioAssay data set” (2004).

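Five compound concentrations were applied to cells in 96-well plates for 48 hours; endpoints were derived by simple linear interpolation of the resulting dose-response curve. GI50 is the concentration that inhibits growth by half.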 Active and inactive are the calls of the source. No stated cut-off is given here; in the data, active = GI50 up to about 1.1 µM and inactive = higher.

Among the test systems are A498; COLO 205; DU-145; HL-60; Hs-578T; IGROV-1; KM12; LOX IMVI; M14; MCF7; MDA-MB-435; MDA-N; NCI/ADR-RES; PC-3; RXF 393; SF-539; SK-MEL-28; SNB-19; SR; T47D.
Holding throughout (experiment): NCI anticancer screen, dose series, 48 h

Consider `BrCC[N+]12CC[N+](CCBr)(CC1)C2`, for which the GI50 in the assay with A498, in the assay with COLO 205, in the assay on DU-145, in the assay with HL-60, in the assay on Hs-578T and in the assay on IGROV-1 was > 100 µM (inactive) each time. The GI50 in the assay on KM12, in the assay on LOX IMVI, in the assay on M14, in the assay on MCF7, with MDA-MB-435 and in the assay with MDA-N was > 100 µM (inactive) in each case. Moreover, the GI50 in the assay with NCI/ADR-RES, in the assay on PC-3, in the assay on RXF 393, with SF-539, in the assay on SK-MEL-28 and with SNB-19 was > 100 µM (inactive) in each case. For the same molecule, the GI50 with SR and with T47D was > 100 µM (inactive) in each case.
Regarding `COc1ccc(C(=O)Cn2c(C(=O)/C=C/c3ccco3)nc3ccccc32)cc1`, the GI50 is 35.5 µM (inactive) with A498; 21.7 µM (inactive) in the assay with COLO 205; 38.5 µM (inactive) with DU-145; 22.1 µM (inactive) in the assay on HL-60; 25.3 µM (inactive) in the assay with Hs-578T; 44.1 µM (inactive) with IGROV-1. For the same molecule, the GI50 in the assay with KM12 is 28.3 µM (inactive); in the assay on LOX IMVI, 25.8 µM (inactive); in the assay on M14 it was 36.6 µM (inactive); with MCF7 it was 19.4 µM (inactive); in the assay with MDA-MB-435, 24.4 µM (inactive); with MDA-N, 26 µM (inactive). Besides, the GI50 with NCI/ADR-RES is 25.9 µM (inactive); with PC-3 it was 36.3 µM (inactive); with RXF 393, 41.3 µM (inactive); in the assay with SF-539, 34 µM (inactive); with SK-MEL-28 it was 42.2 µM (inactive); with SNB-19, 39.2 µM (inactive). In addition, the GI50 is 10 µM (inactive) in the assay with SR and 66.7 µM (inactive) with T47D.
Regarding `CN(C)CCCC12CCCCC1=Nc1ccccc12` (stereo not given), the GI50 in the assay on A498 was > 100 µM (inactive); in the assay on COLO 205 it was 48.2 µM (inactive); in the assay on DU-145 it was > 100 µM (inactive); in the assay on HL-60, 26.1 µM (inactive); with Hs-578T, > 100 µM (inactive); in the assay on IGROV-1 it was > 100 µM (inactive). Besides, the GI50 with KM12 is > 100 µM (inactive); with LOX IMVI, > 100 µM (inactive); with M14, > 100 µM (inactive); with MCF7, > 100 µM (inactive); in the assay with MDA-MB-435 it was 94.6 µM (inactive); with MDA-N it was > 100 µM (inactive). The GI50 with NCI/ADR-RES, with PC-3, in the assay with RXF 393, in the assay with SF-539, in the assay with SK-MEL-28 and with SNB-19 was > 100 µM (inactive) throughout. Besides, the GI50 in the assay with SR was 22.5 µM (inactive); with T47D, > 100 µM (inactive).
As to `SC1=Nc2ccccc2-c2nc(-c3cccc(Cl)c3)cc(-c3ccccc3)c2C1`, the GI50 in the assay with A498 is 2.02 µM (inactive); in the assay on COLO 205, 7.82 µM (inactive); with DU-145, 5.36 µM (inactive); in the assay on HL-60, 15 µM (inactive); in the assay with Hs-578T it was 2.05 µM (inactive); in the assay with IGROV-1 it was 0.678 µM (active). For the same molecule, the GI50 was 4.53 µM (inactive) in the assay on KM12; 3.15 µM (inactive) in the assay with LOX IMVI; 4.61 µM (inactive) with M14; 5.04 µM (inactive) in the assay with MCF7; 9.02 µM (inactive) in the assay with MDA-MB-435; 3.48 µM (inactive) with MDA-N. Besides, the GI50 with NCI/ADR-RES was 2.04 µM (inactive); in the assay with PC-3 it was 7.57 µM (inactive); in the assay with RXF 393 it was 2.81 µM (inactive); in the assay with SF-539, 1.69 µM (inactive); with SK-MEL-28, 9.12 µM (inactive); in the assay with SNB-19, 1.2 µM (inactive). Also, the GI50 was 11.2 µM (inactive) in the assay on SR and 2.19 µM (inactive) in the assay on T47D.
